Measurements published in article PMC6409975, “Functional Characterization of OXYL, A SghC1qDC LacNAc-specific Lectin from The Crinoid Feather Star Anneissia Japonica” (Marine Drugs, 2019).
Converted amounts (≈) assume the structure as drawn.

What was measured:
OXYL [1] = biological target: T1, OXYL (Anneissia japonica, UniProt A0A482DHP7); experiment: glycan array, fluorescence-labelled lectin; assay type: binding; conditions: immobilised glycan (1 mM spotted); HiLyte Fluor 555-labelled OXYL 0-20 μg/mL; 4 °C overnight; weaker than LNnT
T1 construct: signal peptide 1-18 removed; mainly tetramer; HiLyte Fluor 555-labelled for glycan array

OXYL [2] = biological target: T1, OXYL; experiment: hemagglutination inhibition, rabbit erythrocytes; assay type: binding; conditions: lectin titer 16; TBS with 0.2% Triton X-100; room temperature, 1 h; glutaraldehyde-fixed trypsinized erythrocytes
Description: hemagglutination inhibition, rabbit erythrocytes on OXYL

T1 sequence (A0A482DHP7 entry or part of it): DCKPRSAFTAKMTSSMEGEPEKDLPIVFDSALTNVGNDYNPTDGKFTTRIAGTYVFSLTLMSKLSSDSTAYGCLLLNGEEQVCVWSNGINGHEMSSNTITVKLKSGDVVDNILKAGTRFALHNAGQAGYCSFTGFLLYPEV

| Minimum inhibitory conc. (OXYL [2]) | SMILES | glycan array, fluorescence-labelled lectin (OXYL [1]) |
| --- | --- | --- |
|  | CC(=O)N[C@H]1[C@H]([C@H](O)[C@H](O)CO)O[C@@](O[C@H]2[C@@H](O)[C@@H](CO)O[C@@H](O[C@H]3[C@H](O)[C@@H](NC(C)=O)C(O)O[C@@H]3CO)[C@@H]2O)(C(=O)O)C[C@@H]1O (some centres unmarked) [compound 2, S3LN] | OXYL could bind to 3-sialylated LacNAc more strongly than to 6-sialylated LacNAc |
| 3.13 mM (≈ 1200 µg/mL) | CC(=O)N[C@H]1C(O)O[C@H](CO)[C@@H](O[C@@H]2O[C@H](CO)[C@H](O)[C@H](O)[C@H]2O)[C@@H]1O (some centres unmarked) [N-acetyllactosamine] |  |
